{"source": "patent US10739353B2", "about": "“Suppression of cytokine release and cytokine storm” (SignPath Pharma Inc., priority 2014, dated 2020)", "molecules": {"B1": {"name": "IL-10: the most important anti-inflammatory cytokine (protein, UniProt P22301 19-178, looked up)", "Interleukin-10": "SPGQGTQSENSCTHFPGNLPNMLRDLRDAFSRVKTFFQMKDQLDNLLLKESLLEDFKGYLGCQALSEMIQFYLEEVMPQAENQDPDIKAHVNSLGENLKTLRLRLRRCHRFLPCENKSKAVEQVKNAFNKLQEKGIYKAMSEFDIFINYIEAYMTMKIRN"}}, "key": {"[1]": {"settings": "cited from earlier work; for clinical outcome in patients with TBI: patient trials"}, "QT interval": {"system": "QT interval", "settings": "cited from earlier work"}, "[2]": {"settings": "rats, cited from earlier work; for brain / tissue cytokine levels after TBI: cytokines named in value"}, "[3]": {"settings": "randomized phase II trial, acute stroke, vs control group; cited from earlier work"}, "[4]": {"settings": "mice, cited from earlier work; for brain cytokine levels after TBI: cytokines named in value"}, "cytokine release": {"system": "cytokine release", "settings": "cited from earlier work"}, "SOCS proteins": {"system": "SOCS proteins", "settings": "cited from earlier work"}, "H1N1 virus": {"system": "H1N1 virus", "settings": "in culture; cited from earlier work"}, "coxsackie virus": {"system": "coxsackie virus", "settings": "Song et al; cited from earlier work"}, "[5]": {"system": "HIV-1, HIV-2, HSV, HPV, HTLV-1, HBV, HCV, and Japanese encephalitis virus", "settings": "cited from earlier work"}, "Other Key Cytokines": {"system": "Other Key Cytokines", "settings": "cited from earlier work"}, "EBOV(Zaire)": {"system": "EBOV(Zaire)", "assay": "microbe, parasite or virus in culture", "format": "cell-based", "settings": "Zaire ebolavirus, HeLa, 48 h, read-out: EC50 (anti-EBOV activity)"}, "IL-6, TNF-α and MCP-1": {"system": "IL-6, TNF-α and MCP-1", "settings": "streptozotocin rats; cited from earlier work"}, "Interleukins": {"system": "Interleukins", "settings": "cited from earlier work"}, "IL-1β and TNF-α": {"system": "IL-1β and TNF-α", "settings": "intraperitoneal, 3 hours after injury; cited from earlier work"}, "[6]": {"assay": "Solubility in organic solvents", "format": "physicochemical", "text": "Comparison of PLGA C3-complex-curcumin vs PLGA S-curcumin indicated the following differences. The solubilities of 99.2% S-Curcumin in all four solvents. […] This confers improved manufacturing capability, and attributes to different pharmacokinetics and pharmacodynamics in in vivo settings (Table 3). [table]"}, "[7]": {"system": "rat cerebellar granule cells", "settings": "toxic doses of glutamate (Bachis et al); cited from earlier work"}, "[8]": {"settings": "rats; cited from earlier work"}, "[9]": {"settings": "phase II trial, 20 patients with severe TBI (Helmy et al)"}}, "note": "“Also recorded” adds a separate entry of the source. Where two headings read alike, the source gives them in different places.", "data": [{"molecule": "CC(C)c1nc(N(C)S(C)(=O)=O)nc(-c2ccc(F)cc2)c1/C=C/[C@@H](O)C[C@@H](O)CC(=O)O", "note": "[rosuvastatin]", "values": [{"measurement": "plasma cytokine levels in patients with TBI", "setting": "[1]; 10 days of rosuvastatin, 19 patients vs 17 controls", "result": "dramatic decrease in plasma levels of TNF-α; also recorded: No effect was seen on IL-1β, IL-6 or IL-10"}, {"measurement": "clinical outcome in patients with TBI", "setting": "[1]", "result": "reduction in amnesia time; also recorded: no difference in disability at 3 months; also recorded: improvement in disability scores"}]}, {"molecule": "CCCCCCCCc1ccc(CCC(N)(CO)CO)cc1", "note": "[Fingolimod]", "values": [{"measurement": "QT interval", "setting": "QT interval; patients with relapsing multiple sclerosis, through inhibition of the hERG current", "result": "causes QT prolongation"}]}, {"molecule": "IL-1RA: IL-1 receptor antagonist; human recombinant IL-1RA is a medication for rheumatoid arthritis", "values": [{"measurement": "brain damage / neurological outcome after TBI", "setting": "[2]", "result": "No effect was seen at low doses; also recorded: decreased neuronal loss"}, {"measurement": "brain / tissue cytokine levels after TBI", "setting": "[2]", "result": "reduced tissue IL-1β levels"}, {"measurement": "loss of cognitive function", "setting": "[3]", "result": "less loss of cognitive function"}, {"measurement": "clinical outcome in patients with TBI", "setting": "[1]", "result": "unable to conclude that IL-1RA administration resulted in therapeutic benefit"}, {"measurement": "crossing of the blood-brain barrier", "setting": "[1]; [9]", "result": "does cross the blood-brain barrier"}, {"measurement": "safety", "setting": "[1]; [9]", "result": "safe"}, {"measurement": "brain damage / neurological outcome after TBI", "setting": "[4]", "result": "reduced lesion volume"}]}, {"molecule": "COc1cc(C=CC(=O)CC(=O)C=Cc2ccc(O)c(OC)c2)ccc1O", "note": "[Curcumin, 1,7-bis(4-hydroxy-3-methoxyphenyl)-1,6-heptadiene-3,5-dione]", "values": [{"measurement": "release of IL-1", "setting": "cytokine release; bone marrow stromal cells, colonic epithelial cells and human articular chondrocytes", "result": "block the release"}, {"measurement": "release of IL-2, IL-12, Interferon-γ", "setting": "cytokine release", "result": "prevents release"}, {"measurement": "release of IL-8", "setting": "cytokine release; human esophageal epithelial cells and alveolar epithelial cells", "result": "block the release"}, {"measurement": "IL-1β, IL-8, TNF-α, MCP-1 and MIP-1α release", "setting": "cytokine release; monocytes and macrophages (Abe et al)", "result": "suppresses"}, {"measurement": "release of IL-6, IL-8, TNF-α and MCP-1", "setting": "cytokine release; monocytes cultured in a high glucose environment (Jain et al)", "result": "markedly reduced"}, {"measurement": "release of IL-6", "setting": "cytokine release; rheumatoid synovial fibroblasts", "result": "block the release"}, {"measurement": "effect on SOCS proteins", "setting": "SOCS proteins", "result": "stimulate"}, {"measurement": "activity against the H1N1 virus", "setting": "H1N1 virus", "result": "specific activity"}, {"measurement": "coxsackie virus-induced myocardial damage", "setting": "coxsackie virus", "result": "protected against coxsackie virus-induced severe myocardial damage"}, {"measurement": "expression of IL-1β, IL-6 and TNF-α and NF-κB", "setting": "coxsackie virus", "result": "reduced expression"}, {"measurement": "activity against viruses", "setting": "[5]", "result": "activity against numerous viruses"}, {"measurement": "Effect on GROα (CXCL1)", "setting": "Other Key Cytokines", "result": "↓ GROα"}, {"measurement": "Effect on GROβ (CXCL2)", "setting": "Other Key Cytokines", "result": "↓ GROβ"}, {"measurement": "Effect on IP-10 (CXCL10)", "setting": "Other Key Cytokines", "result": "↓ IP-10"}, {"measurement": "Effect on Interferon γ", "setting": "Other Key Cytokines", "result": "↓ Interferon γ"}, {"measurement": "Effect on MCP-1 (CCL2)", "setting": "Other Key Cytokines", "result": "↓ MCP-1"}, {"measurement": "Effect on MIP-1α (CCL3)", "setting": "Other Key Cytokines", "result": "↓ MIP-1α"}, {"measurement": "Effect on SDF-1 (CXCL12)", "setting": "Other Key Cytokines", "result": "↓ SDF-1"}, {"measurement": "Effect on TNF-α", "setting": "Other Key Cytokines", "result": "↓ TNF-α"}, {"measurement": "EC50", "setting": "EBOV(Zaire)", "result": "6.5 ± 0.5", "unit": "µg/mL"}, {"measurement": "levels of IL-6, TNF-α and MCP-1", "setting": "IL-6, TNF-α and MCP-1", "result": "markedly reduced"}, {"measurement": "Effect on IL-1", "setting": "Interleukins", "result": "↓ IL-1"}, {"measurement": "Effect on IL-2", "setting": "Interleukins", "result": "↓ IL-2"}, {"measurement": "Effect on IL-4", "setting": "Interleukins", "result": "↓ ↑ IL-4"}, {"measurement": "Effect on IL-5", "setting": "Interleukins", "result": "↓ IL-5"}, {"measurement": "Effect on IL-6", "setting": "Interleukins", "result": "↓ IL-6"}, {"measurement": "Effect on IL-8", "setting": "Interleukins", "result": "↓ IL-8"}, {"measurement": "Effect on IL-10", "setting": "Interleukins", "result": "↑ IL-10"}, {"measurement": "Effect on IL-11", "setting": "Interleukins", "result": "↓ IL-11"}, {"measurement": "Effect on IL-12", "setting": "Interleukins", "result": "↓ IL-12"}, {"measurement": "Effect on IL-13", "setting": "Interleukins", "result": "↓ IL-13"}, {"measurement": "Effect on IL-17", "setting": "Interleukins", "result": "↓ IL-17"}]}, {"molecule": "CC(=O)[C@H]1CC[C@H]2[C@@H]3CCC4=CC(=O)CC[C@]4(C)[C@H]3CC[C@]12C", "note": "[progesterone]", "values": [{"measurement": "brain damage / neurological outcome after TBI", "setting": "[2]", "result": "improved motor skills, decreased cerebral edema and decreased mortality; also recorded: reducing apoptosis of brain tissue; also recorded: better results on the Neurological Severity Score Test"}, {"measurement": "brain / tissue cytokine levels after TBI", "setting": "[2]", "result": "reduced brain levels of IL-6 at 24, 48 and 72 hours; also recorded: decreased levels of IL-1β, IL-6 and TNF-α in the brain; also recorded: reduced brain levels of TNF-α and NF-κB"}, {"measurement": "IL-1β and TNF-α", "setting": "IL-1β and TNF-α", "result": "reduce IL-1β and TNF-α"}, {"measurement": "favorable outcome on the Glasgow outcome scale", "setting": "[1]; SYNAPSE trial, 1195 patients with severe TBI", "result": 50.4, "unit": "%"}]}, {"molecule": "Cc1cc(-c2ccccc2)nnc1N1CCN(c2ncccn2)CC1", "note": "[MW151]", "values": [{"measurement": "brain damage / neurological outcome after TBI", "setting": "[4]", "result": "improvement in neurologic functioning"}, {"measurement": "brain cytokine levels after TBI", "setting": "[4]", "result": "restored abnormal cytokine levels to normal"}]}, {"molecule": "tocilizumab: an IL-6 blocker; anti-IL-6 antibody", "values": [{"measurement": "QT interval", "setting": "QT interval; patients with rheumatoid arthritis", "result": "shortening of the duration of the previously prolonged QT interval"}]}, {"molecule": "CC(C(=O)O)c1ccc2c(c1)[nH]c1ccc(Cl)cc12", "note": "(centres unmarked) [Carprofen]", "values": [{"measurement": "brain damage / neurological outcome after TBI", "setting": "[4]", "result": "improve neurological functioning"}, {"measurement": "brain cytokine levels after TBI", "setting": "[4]", "result": "markedly reduce IL-1β and IL-6"}]}, {"molecule": "TSG-6: TNF-α stimulated gene/protein 6, an anti-inflammatory agent", "values": [{"measurement": "brain damage / neurological outcome after TBI", "setting": "[4]", "result": "decreased lesion size and improved neurological recovery"}]}, {"molecule": "etanercept", "values": [{"measurement": "brain damage / neurological outcome after TBI", "setting": "[2]", "result": "reduced neuronal and glial apoptosis and microglial activation; also recorded: increased 5-bromodeoxyuridine and doublecortin markers in the injured brain"}, {"measurement": "brain / tissue cytokine levels after TBI", "setting": "[2]", "result": "reducing the increased levels of TNF-α"}, {"measurement": "neurological function", "setting": "[1]; medical records of 617 patients with stroke and 12 with TBI, no control group (Tobinick et al)", "result": "Marked improvement in neurological function"}]}, {"molecule": "CC(C)[C@]12O[C@H]1[C@@H]1O[C@]13[C@]1(O[C@H]1C[C@H]1C4=C(CC[C@@]13C)C(=O)OC4)[C@@H]2O", "note": "[Triptolide]", "values": [{"measurement": "brain damage / neurological outcome after TBI", "setting": "[2]", "result": "reduce neuronal apoptosis"}, {"measurement": "brain / tissue cytokine levels after TBI", "setting": "[2]", "result": "suppress IL-1β, IL-6 and TNF-α, to increase IL-10 levels"}]}, {"molecule": "COc1cc(/C=C/C(=O)CC(=O)/C=C/c2ccc(O)c(OC)c2)ccc1O", "note": "[Batch-C100609, diferuloylmethane]", "values": [{"measurement": "1 g of solvent solubilize in solvent", "setting": "[6]; Acetone", "result": 23.6, "unit": "mL"}, {"measurement": "Conc.", "setting": "[6]; Acetone", "result": 42300, "unit": "µg/mL"}, {"measurement": "Physical appearance of solubility", "setting": "[6]; Acetone", "result": "Fully"}, {"measurement": "1 g of solvent solubilize in solvent", "setting": "[6]; Acetonitrile", "result": 184, "unit": "mL"}, {"measurement": "Conc.", "setting": "[6]; Acetonitrile", "result": 5440, "unit": "µg/mL"}, {"measurement": "Physical appearance of solubility", "setting": "[6]; Acetonitrile", "result": "Partial"}, {"measurement": "1 g of solvent solubilize in solvent", "setting": "[6]; Ethanol", "result": 263, "unit": "mL"}, {"measurement": "Conc.", "setting": "[6]; Ethanol", "result": 3804, "unit": "µg/mL"}, {"measurement": "Physical appearance of solubility", "setting": "[6]; Ethanol", "result": "Partial"}, {"measurement": "1 g of solvent solubilize in solvent", "setting": "[6]; Ethyl acetate", "result": 96.2, "unit": "mL"}, {"measurement": "Conc.", "setting": "[6]; Ethyl acetate", "result": 10400, "unit": "µg/mL"}, {"measurement": "Physical appearance of solubility", "setting": "[6]; Ethyl acetate", "result": "Partial"}, {"measurement": "solubility compared with C3 complex", "setting": "[6]; normalized to equal concentrations, Ethanol, Ethyl acetate, Acetone, Acetonitrile", "result": "greater solubility"}]}, {"molecule": "B1", "values": [{"measurement": "brain damage / neurological outcome after TBI", "setting": "[2]", "result": "enhance neurological recovery; also recorded: Intracerebroventricular administration was not effective"}, {"measurement": "brain / tissue cytokine levels after TBI", "setting": "[2]", "result": "reduce synthesis of IL-1"}, {"measurement": "caspase-3 and neuronal death", "setting": "[7]", "result": "blocks caspase-3 and reduces neuronal death"}, {"measurement": "cytokines and recovery after spinal cord injury", "setting": "[8]", "result": "reduced TNF-α production and improved motor function"}]}]}
